From patent US10287581B2, “Cell penetrating peptides for intracellular delivery of molecules” (AADIGEN, LLC, priority 2011, dated 2019)
Read-outs that look alike come from different tables or passages of the source.

How the values were obtained:
[1] = target: SS-DNA: single-stranded DNA; test: Binding of single-stranded DNA to VEPEP-6 peptides by fluorescence spectroscopy
Description: (§1) FIG. 2: Binding of nucleic acid to VEPEP-6a as monitored by TRP-intrinsic fluorescence spectroscopy. Dissociation constants were calculated from data fitting. Nucleic acids used: double stranded DNA (45/35 mer), siRNA (19/19 or 25/25) and single stranded DNA (19 or 36 mer)
(§2) VEPEP-6 peptide form stable complexes with siRNA, single stranded and double stranded oligonucleotides. The binding of cargos to VEPEP-6 was monitored by fluorescence spectroscopy using the both intrinsic Trp group of VEPEP-6 (3 to 5 Trp-residues) and extrinsic fluorescently labeled cargoes (using Cy3, Cy5 or FITC). Fluorescence experiments were performed on a PTI spectrofluorimeter at 25° C. in a NaCl 154 mM buffer. Intrinsic Trp-fluorescence of VEPEP-6 was excited at 290 nm and emission spectrum was recorded between 310 and 400 nm, with a spectral band-pass of 2 and 8 nm for excitation and emission, respectively. FITC-fluorescence of labelled-siRNA or DNA was excited at 492 nm and emission recorded between 500 and 580 nm. For VEPEP-6/siRNA interaction, 0.5 μM of FITC-labelled siRNA was titrated by increasing concentrations of peptide. All measurements were corrected for the dilution and curve fitting were performed by using Grafit software (Erithacus). Curve fitting reveal that VEPEP-6 strongly binds the different cargoes with dissociation constant in the nanomolar range (Table 1 and FIG. 2).
(§3) Binding of nucleic acid to ST-VEPEP-6aa was monitored by fluorescence spectroscopy using both TRP-intrinsic and fluorescently labelled nucleic acids. Dissociation constants were calculated from data fitting. Nucleic acids used were double stranded siRNA (19/19 or 25/25) and single stranded DNA (36 mer).

siRNA = test: Binding of siRNA to VEPEP-6 peptides by fluorescence spectroscopy
Description: as §1, §2, §3

[2] = Binding of AZT to VEPEP-6 by quenching of tryptophan fluorescence; conditions: cargo AZT
Description: (§4) FIG. 3: Binding of small hydrophobic molecules to VEPEP-6 as monitored by fluorescence spectroscopy. The binding of Doxorubicin, AZT and Porphyrin to VEPEP-6 was monitored by following the quenching of tryptophan-intrinsic VEPEP-6 fluorescence and that of fluoresceine-labelled-Guanosine (FAM-G) by monitoring FAM-fluorescence. Dissociation constants were calculated from data fitting.
(§5) VEPEP-6 peptides also form stable particles with small aromatic and/or hydrophobic molecules including daunomycin, Paclitaxel, doxorubicin, AZT, porphyrin, FAM-G or fluorescent dyes (FIG. 3). The dissociation constant for small hydrophobic molecule ranges between 0.03 to 4 μM, depending on the nature of the dyes and of the peptides.

[3] = tested on: DD-DNA: double-stranded DNA; test: Binding of double-stranded DNA to VEPEP-6 peptides by fluorescence spectroscopy; conditions: cargo DD-DNA
Description: as §1, §2

[4] = Binding of FAM-guanosine to VEPEP-6 by FAM fluorescence; conditions: cargo FAM-guanosine
Description: as §4
FIGS. 8A and 8B: (8A) Binding of small hydrophobic fluorescent molecules (SFM) to VEPEP-6 as monitored by fluorescence spectroscopy. In the present case, a fluorescently labeled nucleotide (fluorescein-labeled-Guanine) was used. Dissociation constants were calculated from data fitting. (8B) Effect of VEPEP-6 mediated doxorubicin on cancer cell viability. Dose responses of free (white bars) and VEPEP-6 mediated (grey bars) doxorubicin have been evaluated on the viability of U2OS and MCF7 cancer cells.
as §5

[5] = Binding of doxorubicin to VEPEP-6 by quenching of tryptophan fluorescence; conditions: cargo Doxorubicin
Description: as §4, §5

[6] = Binding of porphyrin to VEPEP-6 by quenching of tryptophan fluorescence; conditions: cargo porphyrin
Description: as §4, §5

cyclin B1 = test: Cyclin B1 silencing at protein (Western blotting) and mRNA (Quantigen) level; format: cell-based, Human; conditions: 200 nM siRNA complexed with VEPEP-6 at a 1/20 ratio
Description: FIGS. 6A-6C: VEPEP-6 dose response of Cyclin B1 silencing at the protein and mRNA levels on Hela (6A) and HS68 (6B) cells. Stock solution of VEPEP-6/siRNA ([…]) particles were prepared at a molar ratio of 1/20 (siRNA/VEPEP-6), and lower concentrations (from 200 nM to 0.125 nM) were obtained by serial dilution of the stock solution in PBS. HeLa (Panel A) and HS-68 (Panel B) cells (60% confluency) were overlaid with preformed complexes for 30 min, then fresh DMEM supplemented with 10% FCS was added directly to the cells, which were then returned to the incubator for 24 hrs. Cyclin B1 protein levels were determined by Western Blotting using Cdk2 as a control for quantification (white bars). Cyclin B1 mRNA levels were measured 12 hrs after transfection using Quantigen technology (black bars). Mismatched Cyc-B3 siRNA associated with VEPEP-6 (200 nM) and empty VEPEP-6 particles (20 μM) were used as a control. 6C: Dose-response of G2-arrest associated with Cyclin B1 silencing. HeLa (black bars) and HS68 (white bars) cells were treated with increasing concentrations of VEPEP-6/siRNA-Cyc-B1 from 0.25 nM to 20 nM. The cell cycle status was evaluated by FACS analysis. […]
Cyclin B1 mRNA and protein levels were determined 12 and 24 hrs following transduction, using Quantigen (Panomics Inc.) and Western blotting, respectively. […]

[7] = cargo siRNA, 25° C., NaCl 154 mM buffer, read-out: Kd

Kd ([1]; single stranded nucleic acid (DNA 36 mer), read-out: dissociation constant) [nM] | Kd (siRNA; double stranded nucleic acid (siRNA 19/19 or 25/25), read-out: dissociation constant) [nM] | Binding [2] | Binding ([1]; cargo SS-DNA) | Kd ([1]; cargo SS-DNA, read-out: Kd) [nM] | Binding (siRNA; cargo siRNA) | Kd (siRNA; [7]) [nM] | Binding [3] | Kd [3] [nM] | Binding [4] | Binding [5] | Kd [5] [nM] | Binding [6] | Kd [6] [nM] | Kd [2] [nM] | Kd [4] [nM] | Substance | effect on cyclin B1 levels and cell cycle progression (cyclin B1)
4 | 7 |  |  |  |  |  |  |  |  |  |  |  |  |  |  | Ac-X1LFLARWRsLLRSsLWRLLWK-cysteamide [ST-VEPEP-6aa] | 
 |  | no | yes | 50 to 100 | yes | 10 to 20 | yes | 200 | no | yes | 1000 | yes | 4000 |  |  | Ac-[βA/S]LFRALWRLLR[S/T]LWRLLW[K/R]-cysteamide [VEPEP-6a] | 
 |  | no | yes | 50 to 100 | yes | 10 to 20 | yes | 200 | no | yes | 700 | yes | 5000 |  |  | Ac-[βA/S]LWRALWRLWR[S/T]LWRLLW[K/R]A-cysteamide [VEPEP-6b] | 
 |  | yes | yes | 50 to 100 | yes | 10 to 20 | yes | 200 | yes | yes | 500 | yes | 500 | 100 | 800 | Ac-[βA/S]LWRALWRLWR[S/T]LWRLWR[K/R]A-cysteamide [VEPEP-6d] | 
 |  | yes | yes | 50 to 100 | yes | 10 to 20 | yes | 200 | yes | yes | 200 | yes | 200 | 2400 | 2800 | Ac-[βA/S]LWRALWRL[L/C/I]RNLWRLLW[K/R]A-cysteamide [VEPEP-6f] | 
 |  | yes | yes | 50 to 100 | yes | 10 to 20 | yes | 200 | yes | yes | 30 | yes | 1200 | 300 | 4000 | Ac-[βA/S]LWRALWRL[L/C/I]R[S/T]LWRLWR[K/R]A-cysteamide [VEPEP-6c] | 
 |  | yes | yes | 50 to 100 | yes | 10 to 20 | yes | 200 | yes | yes | 500 | yes | 200 | 900 | 2300 | Ac-[βA/S]LWRALWRL[L/I]RALWRLLW[K/R]A-cysteamide [VEPEP-6e] | 
 |  |  |  |  |  |  |  |  |  |  |  |  |  |  |  | si-GAPDH: unrelated siRNA targeting GAPDH, SEQ ID No: 21/22 (chain 1 CAUCAUCCCUGCCUCUACUTT; chain 2 AGUAGAGGCAGGGAUGAUG; chemistry not given here) | no effect
